Data reported in US20150376225A1, “NOVEL COMPOUNDS OF 11BETA-HYDROXY-STEROIDS FOR USE IN MITOCHONDRIA BIOGENESIS AND DISEASES ASSOCIATED WITH MITOCHONDRIAL DYSFUNCTION OR DEPLETION” (SPHAERA PHARMA PVTD. LTD., priority 2013, published 2015).

The molecules below were run on AMPK (assay: AMPK activation, cell based ELISA in Hep G2 cells). Settings: 1 h incubation, DMSO control as 100%.
Method: AMPK Activation Protocol:
AMPK activation potential of the compounds was evaluated using cell based ELISA.
Hepatoma (Hep G2) liver cells were maintained in a T 75 culture flask-containing 25 mM DMEM+10% fetal calf serum. The cells were maintained in a T 75 culture flask-containing medium (DMEM+10% fetal calf serum). On reaching a confluence of 70 to 80%, the cells were seeded in a 96 well plate at a density of 40,000 cells per well in 25 mM DMEM+10% FCS medium. The plates were then incubated at 37° C. with 5% CO2 for 24 hours. Various concentrations of drugs were prepared in DMSO and diluted to required concentration with the medium and incubated at 37° C. with 5% CO2 for 30 min and 1 h for Epicatechin analogs and 11-BHP analogs respectively. Metformin was used as positive control. Cells were fixed with 4% formaldehyde for 30 minutes at room temperature and washed three times with PBS containing 0.1% Triton X-100. Endogenous peroxidase was quenched with 1% H2O2 in PBS-T (0.1% Tween 20) for 30 minutes and washed three times in PBS-T. Cells were blocked with 1% BSA in PBS-T for 1 hour.

Compared with `CC(=O)[C@H]1CCC2C3CC=C4C[C@@H](O)CC[C@]4(C)C3[C@@H](O)C[C@@]21C` (stereo partly drawn) [Compound 1016, 1-((3S,10R,11S,13S,17S)-3,11-dihydroxy-10,13-dimethyl-2,3,4,7,8,9,10,11,12,13,14,15,16,17-tetradecahydro-1H-cyclopenta[a]phenanthren-17-yl)ethan-1-one], `C[C@]12CC[C@H](O)CC1=CCC1C2[C@@H](O)C[C@@]2(C)C1CC[C@@H]2O` (stereo partly drawn) [Compound 1017, (3S,10R,11S,13S,17S)-10,13-dimethyl-2,3,4,7,8,9,10,11,12,13,14,15,16,17-tetradecahydro-1H-cyclopenta[a]phenanthrene-3,11,17-triol] is lower in “% activation pAMPK at 1 nM” value: 104% for the first, 97% for the second.

Compared with `C[C@]12CCC(=O)C=C1CCC1C2[C@@H](O)C[C@@]2(C)C1CC[C@@H]2O` (stereo partly drawn) [Compound 1018, (10R,11S,13S,17S)-11,17-dihydroxy-10,13-dimethyl-1,2,6,7,8,9,10,11,12,13,14,15,16,17-tetradecahydro-3H-cyclopenta[a]phenanthren-3-one], `C[C@]12C[C@H](O)C3C(CCC4=CC(=O)CC[C@@]43C)C1CCC2C(=O)O` (stereo partly drawn) [Compound 1020, (10R,11S,13S)-11-hydroxy-10,13-dimethyl-3-oxo-2,3,6,7,8,9,10,11,12,13,14,15,16,17-tetradecahydro-1H-cyclopenta[a]phenanthrene-17-carboxylic acid] is higher in “% activation pAMPK at 1 nM” value: 106% for the first, 132% for the second.

Compared with `C[C@]12CCC(=O)C=C1CCC1C2[C@@H](O)C[C@]2(C)C(=O)CCC12` (stereo partly drawn) [Compound 1019, (10R,11S,13S)-11-hydroxy-10,13-dimethyl-1,6,7,8,9,10,11,12,13,14,15,16-dodecahydro-3H-cyclopenta[a]phenanthrene-3,17(2H)-dione], `C[C@]12CCC(=O)C=C1CCC1C2[C@@H](O)C[C@]2(C)/C(=N/O)CCC12` (stereo partly drawn) [Compound 1024, (10R,11S,13S,E)-11-hydroxy-17-(hydroxyimino)-10,13-dimethyl-1,2,6,7,8,9,10,11,12,13,14,15,16,17-tetradecahydro-3H-cyclopenta[a]phenanthren-3-one] is higher in “% activation pAMPK at 1 nM” value: 103% for the first, 133% for the second.

Going from `CC(O)C1CCC2C3CC=C4CC5(CC[C@]4(C)C3[C@@H](O)C[C@]12C)OCCO5` (stereo partly drawn) [Compound 1021, (10R,11S,13S)-17-(1-hydroxyethyl)-10,13-dimethyl-1,2,4,7,8,9,10,11,12,13,14,15,16,17-tetradecahydrospiro[cyclopenta[a]phenanthrene-3,2′-[1,3]dioxolan]-11-ol] to `CC(=O)[C@H]1CCC2C3CCC4=CC(=O)CC[C@]4(C)C3[C@@H](O)C[C@@]21C` (stereo partly drawn) [Compound 1025, (10R,11S,13S,17S)-17-acetyl-11-hydroxy-10,13-dimethyl-1,2,6,7,8,9,10,11,12,13,14,15,16,17-tetradecahydro-3H-cyclopenta[a]phenanthren-3-one], the “% activation pAMPK at 1 nM” value falls from 129% to 118%.

Compared with `C[C@]12CC/C(=N/O)C=C1CCC1C2[C@@H](O)C[C@]2(C)/C(=N/O)CCC12` (stereo partly drawn) [Compound 1022, (3Z,10R,11S,13S,17E)-11-hydroxy-10,13-dimethyl-1,6,7,8,9,10,11,12,13,14,15,16-dodecahydro-3H-cyclopenta[a]phenanthrene-3,17(2H)-dione dioxime], `C[C@]12CCC(=O)C=C1CCC1C2[C@@H](O)C[C@@]2(C)C1CC[C@]2(O)C(=O)O` (stereo partly drawn) [Compound 1023, (10R,11S,13S,17R)-11,17-dihydroxy-10,13-dimethyl-3-oxo-2,3,6,7,8,9,10,11,12,13,14,15,16,17-tetradecahydro-1H-cyclopenta[a]phenanthrene-17-carboxylic acid] is lower in “% activation pAMPK at 1 nM” value: 129% for the first, 127% for the second.

In the case of `C[C@]12CCC(=O)C=C1CCC1C2[C@@H](O)C[C@@]2(C)C1CC[C@@]21OCC1=O` (stereo partly drawn) [Compound 1028, (10R,11S,13S,17R)-11-hydroxy-10,13-dimethyl-1,6,7,8,9,10,11,12,13,14,15,16-dodecahydrospiro[cyclopenta[a]phenanthrene-17,2′-oxetane]-3,3′(2H)-dione], the “% activation pAMPK at 1 nM” value is reported as 103%.
